Laboratory results: PMC6270001, “Synthesis and Antiviral Activity of N-Phenylbenzamide Derivatives, a Novel Class of Enterovirus 71 Inhibitors” (Molecules, 2013)

Legend:
Vero cells = experiment: Cytotoxicity determination in Vero cells monitored by cytopathic effect (CPE); format: cell-based; conditions: 48 h, Reed & Muench, concentration that inhibits 50% cellular growth, average ± SD, n=3
Experimental: Vero cells were purchased from the American Type Culture Collection and cultured in Minimum Essential Medium (MEM) supplemented with 10% Fetal Bovine Serum (FBS) and antibiotics (100 U/mL penicillin G, 100 μg/mL streptomycin). Enterovirus 71 (EV 71) strain SZ-98 was kindly provided by Dr. Qi Jin, Institute of Pathogen Biology, Chinese Academy of Medical Science and Peking Union Medical School. […] Enterovirus 71 (EV 71) strain JS-52-3 was kindly provided by Dr. Xiang-zhong Ye, Beijing Wantai Biological Pharmacy Enterprise Co., Ltd. All Enterovirus 71 strains were propagated in Vero cells.
(§1) All compounds were dissolved in DMSO at 20 mg/mL as a stock solution and further diluted in culture medium prior to use. The initial concentration in all cytotoxicity assay was 200 µg/mL, and inhibition assay for anti-EV71 experiments was from maximum non-toxic concentration, and proceeded serially 3-fold dilution with culture medium. All cytotoxicity and activity assay for each compound was repeated for three times, and the data was indicated as average ± SD.
The cytotoxicity of compounds in the presence of Vero cells was monitored by cytopathic effect (CPE). Vero cells (2.5 × 10^4/well) were plated into a 96-well plate. A total of 24 h later, the monolayer cells were incubated in the presence of various concentrations of test compounds. […] The median toxic concentration (TC50) was calculated by Reed & Muench analyses.

[1] = test system: EV 71 strain SZ-98 (genotype C4); experiment: Anti EV 71 activity assay (CPE, Reed & Muench) in Vero cells, strain SZ-98; format: cell-based, Enterovirus 71; conditions: for IC50: EV 71 strain SZ-98, Vero cells, 100 TCID50, CPE, average ± SD, n=3; for SI SZ-98: selectivity index TC50/IC50, strain SZ-98, "-" stands for no antiviral selectivity
Experimental: (§2) The EV 71 was divided into three genotypes A, B and C based on nucleotide sequence comparisons, and genotypes B and C were subdivided into B1-B5 and C1-C5 [6, 10]. Genotype C is the most common genotype found in mainland China, especially the C4 subgenotype. Consequently, the intermediate compounds 1a, 1c and 1e, and the final products 2a–c, 3a–g, and 5a–f were evaluated for their anti-EV 71 activity in Vero cells against genotypes C4 (strains SZ-98 and JS-52-3), C2 (strain H) and A (strain BrCr). […] The IC50 values were calculated by the Reed and Muench method, and the cytotoxicity was monitored by the CPE method.
(§3) Vero cells were purchased from the American Type Culture Collection and cultured in Minimum Essential Medium (MEM) supplemented with 10% Fetal Bovine Serum (FBS) and antibiotics (100 U/mL penicillin G, 100 μg/mL streptomycin). Enterovirus 71 (EV 71) strain SZ-98 was kindly provided by Dr. Qi Jin, Institute of Pathogen Biology, Chinese Academy of Medical Science and Peking Union Medical School. Enterovirus 71 (EV 71) strain BrCr (VR-1775) was purchased from the American Type Culture Collection. Enterovirus 71 (EV 71) strain JS-52-3 was kindly provided by Dr. Xiang-zhong Ye, Beijing Wantai Biological Pharmacy Enterprise Co., Ltd. All Enterovirus 71 strains were propagated in Vero cells.
as §1
(§4) Confluent Vero cells grown in 96-well microplates were infected respectively with 100 median tissue culture infective dose (TCID50) EV 71. After 1 h adsorption at 37 °C, the monolayers were washed by PBS and incubated at 37 °C in the maintenance medium with or without different concentrations of test compounds.

[2] = test system: EV 71 strain JS-52-3 (genotype C4); experiment: Anti EV 71 activity assay (CPE, Reed & Muench) in Vero cells, strain JS-52-3; format: cell-based, Enterovirus 71; conditions: for IC50: Enterovirus A, Vero, EV 71 strain JS-52-3, Vero cells, 100 TCID50, CPE, average ± SD, n=3; for SI JS-52-3: selectivity index TC50/IC50, strain JS-52-3, "-" stands for no antiviral selectivity
Experimental: as §2, §3, §1, §4

[3] = test system: EV 71 strain H (genotype C2); experiment: Anti EV 71 activity assay (CPE, Reed & Muench) in Vero cells, strain H; format: cell-based, Enterovirus 71; conditions: for IC50: EV 71 strain H (C2 genotype), Vero cells, 100 TCID50, CPE, average ± SD, n=3; for SI H: selectivity index TC50/IC50, strain H, "-" stands for no antiviral selectivity
Experimental: as §2, §3, §1, §4

[4] = test system: EV 71 strain BrCr (genotype A); experiment: Anti EV 71 activity assay (CPE, Reed & Muench) in Vero cells, strain BrCr; format: cell-based, Enterovirus 71; conditions: for IC50: Enterovirus A, Vero, EV 71 strain BrCr, Vero cells, 100 TCID50, CPE, average ± SD, n=3; for SI BrCr: selectivity index TC50/IC50, strain BrCr, "-" stands for no antiviral selectivity
Experimental: as §2, §3, §1, §4

## COc1ccc(C(=O)Nc2ccccc2)cc1N [Compound 1a]
Vero cells
  TC50: >820 µM
[1]; Enterovirus A, Vero
  IC50: 350 ± 24 µM
[2]
  IC50: 160 ± 7.9 µM
  SI JS-52-3: 5.2
[3]; Enterovirus A, Vero
  IC50: 190 ± 14 µM
[3]
  SI H: 4.3
[4]
  IC50: 160 ± 12 µM
  SI BrCr: 5.2

## COc1ccc(C(=O)Nc2ccccc2)cc1NC(=O)C(C)F (stereo not shown) [Compound 2a]
[1]; Enterovirus A, Vero
  IC50: > 630 µM
[2]
  IC50: 160 ± 5.7 µM
  SI JS-52-3: >3.9
[3]; Enterovirus A, Vero
  IC50: 18 ± 1.2 µM
[3]
  SI H: >35
[4]
  IC50: > 630 µM

## COc1cc(C(=O)Nc2ccccc2)ccc1NC(=O)C(C)F (stereo not shown) [Compound 2c, 4-(2-Fluoropropanamido)-3-methoxy-N-phenylbenzamide]
Vero cells
  TC50: >630 µM
[1]; Enterovirus A, Vero
  IC50: 110 ± 12 µM
[1]
  SI SZ-98: >5.8
[2]
  IC50: 34 ± 2.8 µM
[3]; Enterovirus A, Vero
  IC50: 41 ± 2.9 µM
[3]
  SI H: >16
[4]
  IC50: 90 ± 9.5 µM
  SI BrCr: >7.0
other
  melting point: 142 to 143 °C

## CNc1cc(C(=O)Nc2ccccc2)ccc1OC [Compound 3a, 4-Methoxy-3-methylamino-N-phenylbenzamide]
Vero cells
  TC50: 780 ± 0.0 µM
[1]; Enterovirus A, Vero
  IC50: > 260 µM
[2]
  IC50: 260 µM
  SI JS-52-3: 3.0
[3]; Enterovirus A, Vero
  IC50: 260 µM
[3]
  SI H: 3.0
[4]
  IC50: 180 ± 14 µM
  SI BrCr: 4.3
other
  melting point: 170 to 172 °C

## COc1ccc(C(=O)Nc2ccc(Cl)cc2)cc1N(C)C [Compound 3b, N-(4-Chlorophenyl)-3-dimethylamino-4-methoxybenzamide]
Vero cells
  TC50: 510 ± 38 µM
[1]; Enterovirus A, Vero
  IC50: 73 ± 8.6 µM
[1]
  SI SZ-98: 7.0
[2]
  IC50: 42 ± 3.1 µM
  SI JS-52-3: 12
[3]; Enterovirus A, Vero
  IC50: 31 ± 4.3 µM
[3]
  SI H: 16
[4]
  IC50: 50 ± 3.8 µM
  SI BrCr: 10
other
  melting point: 160 to 162 °C

## CNc1cc(C(=O)Nc2cc(OC)c(OC)c(OC)c2)ccc1OC [Compound 3c, 4-Methoxy-3-methylamino-N-(3,4,5-trimethoxyphenyl)benzamide]
Vero cells
  TC50: 280 ± 5.9 µM
[1]; Enterovirus A, Vero
  IC50: 64 µM
[1]
  SI SZ-98: 4.3
[2]
  IC50: 37 ± 1.9 µM
  SI JS-52-3: 7.5
[3]; Enterovirus A, Vero
  IC50: 37 ± 1.2 µM
[3]
  SI H: 7.5
[4]
  IC50: 44 ± 1 µM
  SI BrCr: 6.2
other
  melting point: 147 to 148 °C

## COc1ccc(C(=O)Nc2cc(OC)c(OC)c(OC)c2)cc1N(C)C [Compound 3d, 3-Dimethylamino-4-methoxy-N-(3,4,5-trimethoxyphenyl)benzamide]
Vero cells
  TC50: >560 µM
[1]; Enterovirus A, Vero
  IC50: 320 ± 32 µM
[1]
  SI SZ-98: >1.7
[2]
  IC50: > 560 µM
[3]; Enterovirus A, Vero
  IC50: 190 µM
[3]
  SI H: >3.0
[4]
  IC50: 190 µM
  SI BrCr: >3.0
other
  melting point: 120 to 122 °C

## CCCNc1cc(C(=O)Nc2ccccc2)ccc1OC [Compound 3e, 4-Methoxy-N-phenyl-3-(propylamino)benzamide]
Vero cells
  TC50: 410 ± 22 µM
[1]; Enterovirus A, Vero
  IC50: > 78 µM
[2]
  IC50: 34 ± 4.6 µM
  SI JS-52-3: 12
[3]
  IC50: 20 ± 1.2 µM
  SI H: 20
[3]; Enterovirus A, Vero
  IC50: ~15 µM
[4]
  IC50: 45 µM
  SI BrCr: 9.0
other
  melting point: 121 to 123 °C

## CCCNc1cc(C(=O)Nc2ccc(Cl)cc2)ccc1OC [Compound 3f, N-(4-Chlorophenyl)-4-methoxy-3-propylaminobenzamide]
Vero cells
  TC50: 120 µM
[1]; Enterovirus A, Vero
  IC50: > 70 µM
[2]
  IC50: > 70 µM
[3]; Enterovirus A, Vero
  IC50: > 70 µM
[4]
  IC50: > 70 µM
other
  melting point: 168 to 171 °C

## CCC(=O)Nc1cc(C(=O)Nc2ccccc2)ccc1OC [Compound 5a]
Vero cells
  TC50: >670 µM
[1]; Enterovirus A, Vero
  IC50: > 75 µM
[2]
  IC50: 58 ± 4.9 µM
  SI JS-52-3: >12
[3]; Enterovirus A, Vero
  IC50: 96 ± 10 µM
[3]
  SI H: >7.0
[4]
  IC50: 45 ± 10 µM

## CCC(=O)Nc1cc(C(=O)Nc2ccc(Cl)cc2)ccc1OC [Compound 5b, N-(4-Chlorophenyl)-4-methoxy-3-propionamidobenzamide]
Vero cells
  TC50: >600 µM
[1]; Enterovirus A, Vero
  IC50: 38 ± 2.9 µM
[1]
  SI SZ-98: > 16
[2]
  IC50: 39 ± 1.9 µM
  SI JS-52-3: >16
[3]; Enterovirus A, Vero
  IC50: 22 ± 2.9 µM
[3]
  SI H: >27
[4]
  IC50: > 67 µM
other
  melting point: 130 to 132 °C

## CCC(=O)Oc1cc(C(=O)N(C)c2ccc(Cl)cc2)ccc1OC [Compound 5d, N-(4-Chlorophenyl)-N-methyl-4-methoxy-3-propionyloxybenzamide]
Vero cells
  TC50: 280 ± 21 µM
[1]; Enterovirus A, Vero
  IC50: 190 ± 12 µM
[1]
  SI SZ-98: 1.4
[2]
  IC50: 44 ± 3.7 µM
  SI JS-52-3: 6.2
[3]; Enterovirus A, Vero
  IC50: 65 µM
[3]
  SI H: 4.3
[4]
  IC50: 53 ± 2.4 µM
  SI BrCr: 5.2
other
  melting point: 139 to 141 °C

## COc1ccc(C(=O)Nc2ccc(Cl)cc2)cc1OC(C)=O [Compound 5e, N-(4-Chlorophenyl)-4-methoxy-3-acetoxybenzamide]
Vero cells
  TC50: 470 ± 22 µM
[1]
  IC50: 13 ± 2.4 µM
  SI SZ-98: 37
[1]; Enterovirus A, Vero
  IC50: ~15 µM
[2]
  IC50: 32 ± 3.6 µM
  SI JS-52-3: 14
[3]; Enterovirus A, Vero
  IC50: 22 ± 4.7 µM
[3]
  SI H: 21
[4]
  IC50: 32 ± 3.9 µM
  SI BrCr: 15
other
  melting point: 177 to 179 °C

## COc1ccc(C(=O)Nc2ccccc2)cc1OC(C)=O [Compound 5f, 4-Methoxy-N-phenyl-3-acetoxybenzamide]
Vero cells
  TC50: 360 ± 39 µM
[1]; Enterovirus A, Vero
  IC50: 90 ± 11 µM
[1]
  SI SZ-98: 4.0
[2]
  IC50: 98 ± 4.7 µM
  SI JS-52-3: 3.7
[3]; Enterovirus A, Vero
  IC50: 47 ± 6.1 µM
[3]
  SI H: 7.6
[4]
  IC50: 95 ± 9 µM
  SI BrCr: 3.8
other
  melting point: 153 to 155 °C
